Results: PubChem BioAssay AID2060499 (Molecular Pharmacology Branch, DTP, NCI, 2025)

System: 777334-354-R2-J4-PDC tumor spheroids with HUVEC/MSC, viability
Test: Anticancer human tumor 777334-354-R2-J4-PDC patient-derived pancreatic adenocarcinoma cell line growth inhibition [GQUAD]
Conditions: for IC50: curve of first compound; for viability, T/C: stronger effect = lower value
Outline: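 Viability of tumor cells grown as complex spheroids with endothelial and stromal cells, exposed to drug combinations. Top concentration at or near clinical Cmax (else 10 microM), diluted in half-log increments.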

[1] = second compound 0.0316 µM, first compound 0.0316 µM
[2] = second compound 0.0316 µM, first compound 0.1 µM
[3] = second compound 0.0316 µM, first compound 0.316 µM
[4] = second compound 0.0316 µM, first compound 1 µM
[5] = second compound 0.0316 µM, first compound 3.16 µM
[6] = second compound 0.0316 µM, first compound 10 µM
[7] = second compound 0.1 µM, first compound 0.0316 µM
[8] = second compound 0.1 µM, first compound 0.1 µM
[9] = second compound 0.1 µM, first compound 0.316 µM
[10] = second compound 0.1 µM, first compound 1 µM
[11] = second compound 0.1 µM, first compound 3.16 µM
[12] = second compound 0.1 µM, first compound 10 µM
[13] = second compound 0.316 µM, first compound 0.0316 µM
[14] = second compound 0.316 µM, first compound 0.1 µM
[15] = second compound 0.316 µM, first compound 0.316 µM
[16] = second compound 0.316 µM, first compound 1 µM
[17] = second compound 0.316 µM, first compound 3.16 µM
[18] = second compound 0.316 µM, first compound 10 µM
[19] = second compound 1 µM, first compound 0.0316 µM
[20] = second compound 1 µM, first compound 0.1 µM
[21] = second compound 1 µM, first compound 0.316 µM
[22] = second compound 1 µM, first compound 1 µM
[23] = second compound 1 µM, first compound 3.16 µM
[24] = second compound 1 µM, first compound 10 µM
[25] = second compound 3.16 µM, first compound 0.0316 µM
[26] = second compound 3.16 µM, first compound 0.1 µM
[27] = second compound 3.16 µM, first compound 0.316 µM
[28] = second compound 3.16 µM, first compound 1 µM
[29] = second compound 3.16 µM, first compound 3.16 µM
[30] = second compound 3.16 µM, first compound 10 µM
[31] = second compound 10 µM, first compound 0.0316 µM
[32] = second compound 10 µM, first compound 0.1 µM
[33] = second compound 10 µM, first compound 0.316 µM
[34] = second compound 10 µM, first compound 1 µM
[35] = second compound 10 µM, first compound 3.16 µM
[36] = second compound 10 µM, first compound 10 µM
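Further: spheroids exposed to compounds for 7 days before readout.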

Molecule `CC(C)(O)C1CCC(Nc2ccc3ncc(-c4cccc(C(F)(F)F)c4)n3n2)CC1` (centres undefined) + Cc1cnc(CNC(=O)c2c(=O)c3ccc(N4CCCN(C)CC4)nc3n3c2sc2ccccc23)cn1 has an IC50 (second compound 0.0316 µM) of 880 nM, an IC50 (second compound 0.1 µM) of 806 nM and an IC50 (second compound 0.316 µM) of 838 nM. The IC50 (second compound 1 µM) was 913 nM, the IC50 (second compound 3.16 µM) was 776 nM and the IC50 (second compound 10 µM) was under 31.6 nM. The viability, T/C [1] was 105%, the viability, T/C [2] was 74% and the viability, T/C [3] was 94.5%. For the same molecule, the viability, T/C [4] was 44.8%, the viability, T/C [5] was 27.7% and the viability, T/C [6] was 35.2%. It also gave a viability, T/C [7] of 85%, a viability, T/C [8] of 74% and a viability, T/C [9] of 79.5%. It also gave a viability, T/C [10] of 43.2%, a viability, T/C [11] of 29.1% and a viability, T/C [12] of 35.4%. For the same molecule, the viability, T/C [13] was 80.8%, the viability, T/C [14] was 71.5% and the viability, T/C [15] was 71.5%. It also gave a viability, T/C [16] of 46.5%, a viability, T/C [17] of 29.1% and a viability, T/C [18] of 31.3%. The viability, T/C [19] was 63%, the viability, T/C [20] was 67.4% and the viability, T/C [21] was 67%. For the same molecule, the viability, T/C [22] was 48.6%, the viability, T/C [23] was 33% and the viability, T/C [24] was 30.7%. For the same molecule, the viability, T/C [25] was 61.4%, the viability, T/C [26] was 68.9% and the viability, T/C [27] was 56.9%. For the same molecule, the viability, T/C [28] was 48.4%, the viability, T/C [29] was 24.4% and the viability, T/C [30] was 23.9%. The viability, T/C [31] was 51.5%, the viability, T/C [32] was 40.1% and the viability, T/C [33] was 48.3%. It also gave a viability, T/C [34] of 36.1%, a viability, T/C [35] of 0.23% and a viability, T/C [36] of 0.19%.

`CCCS(=O)(=O)Nc1ccc(F)c(C(=O)c2c[nH]c3ncc(-c4ccc(Cl)cc4)cc23)c1F` + Cc1cnc(CNC(=O)c2c(=O)c3ccc(N4CCCN(C)CC4)nc3n3c2sc2ccccc23)cn1 showed an IC50 (second compound 0.0316 µM) of 7160 nM, an IC50 (second compound 0.1 µM) of 6930 nM and an IC50 (second compound 0.316 µM) of 6740 nM. It also gave an IC50 (second compound 1 µM) of 7160 nM, an IC50 (second compound 3.16 µM) of over 10000 nM and an IC50 (second compound 10 µM) of 3870 nM. For the same molecule, the viability, T/C [1] was 99.3%, the viability, T/C [2] was 89.1% and the viability, T/C [3] was 105%. For the same molecule, the viability, T/C [4] was 94.3%, the viability, T/C [5] was 106% and the viability, T/C [6] was 30%. The viability, T/C [7] was 83.5%, the viability, T/C [8] was 88.7% and the viability, T/C [9] was 104%. It also gave a viability, T/C [10] of 95.5%, a viability, T/C [11] of 88% and a viability, T/C [12] of 32.1%. For the same molecule, the viability, T/C [13] was 88.7%, the viability, T/C [14] was 91.7% and the viability, T/C [15] was 69%. For the same molecule, the viability, T/C [16] was 92.6%, the viability, T/C [17] was 93.3% and the viability, T/C [18] was 30.7%. For the same molecule, the viability, T/C [19] was 68.8%, the viability, T/C [20] was 77.6% and the viability, T/C [21] was 78.5%. It also gave a viability, T/C [22] of 71.2%, a viability, T/C [23] of 74.9% and a viability, T/C [24] of 40.2%. The viability, T/C [25] was 59%, the viability, T/C [26] was 61.1% and the viability, T/C [27] was 68.9%. For the same molecule, the viability, T/C [28] was 71.2%, the viability, T/C [29] was 72% and the viability, T/C [30] was 43.1%. The viability, T/C [31] was 52.7%, the viability, T/C [32] was 48.6% and the viability, T/C [33] was 68.2%. The viability, T/C [34] was 68.4%, the viability, T/C [35] was 65.2% and the viability, T/C [36] was 0.24%.
